What was measured:
[1] = test system: constipation caused by a chemotherapeutic agent in Balb/c mice; experiment: Examples 406-443 (Table 8): various administration modes of the CDK inhibitor, relief of constipation caused by a chemotherapeutic agent; assay type: in vivo; conditions: for improvement of constipation by oral administration, intraperitoneal injection, intramuscular injection, local administration: constipation caused by doxorubicin, etoposide, etoposide plus cisplatin, carboplatin, gemcitabine, gemcitabine plus carboplatin, under certain conditions, oral most significant;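 as to Relative remission rate of oral administration: percent of treated mice relieved versus chemotherapy group by feces reduction rate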;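 as to Relative remission rate of other administration mode: percent of treated mice relieved versus chemotherapy group by feces reduction rate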
Procedure, shortened: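 Balb/c mice (10 per group) received the CDK inhibitor orally, intravenously via the tail vein, intraperitoneally, intramuscularly, or topically on shaved abdominal skin, followed by a chemotherapeutic agent; vehicle groups served as controls. Feces amount over 3 h was recorded daily. Feces reduction rate was calculated relative to the control group.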

[2] = test system: diarrhea caused by a chemotherapeutic agent in Balb/c mice; experiment: Examples 382-405 (Table 7): various administration modes of the CDK inhibitor, relief of diarrhea caused by a chemotherapeutic agent; assay type: in vivo; conditions: for relief of diarrhea by oral, injection and local administration: diarrhea caused by docetaxel, carboplatin, gemcitabine, and gemcitabine plus carboplatin, under certain conditions, effect of oral administration most significant
Text: Balb/c mice were fed for 1 week, and then divided into groups. The experiment was divided into a control group, a chemotherapeutic agent group, CDK inhibitor groups (including an oral administration group of a CDK inhibitor, an intraperitoneal injection group of a CDK inhibitor, an intramuscular injection group of a CDK inhibitor, a local administration group of a CDK inhibitor), each of which comprised 10 mice, to perform the administration experiment, for which the administration dosage, mode, time and frequency were shown in Table 7. The control group: being administered with the same solvent as that used in the CDK inhibitor group (the time and mode were shown in Table 7), and then being injected/intragastrically administered with the same solvent as that used in the chemotherapeutic agent group (the administration mode was shown in Table 7): the chemotherapeutic agent group: being administered with the same solvent as that used in the CDK inhibitor group (the time and mode were shown in Table 7), and then being injected/intragastrically administered with the chemotherapeutic agent (the type, administration mode and dosage were shown in Table 7): the oral administration group of the CDK inhibitor: being intragastrically administered with the CDK inhibitor (the time was shown in Table 7), and then being administered with the chemotherapeutic agent (the mode and dosage were shown in Table 7): the intraperitoneal injection group of the CDK inhibitor: being intraperitoneally injected with the CDK inhibitor (the time was shown in Table 7), and then being administered with the chemotherapeutic agent (the mode and dosage were shown in Table 7): the intramuscular injection group of the CDK inhibitor: being intramuscularly injected with the CDK inhibitor (the time was shown in Table 7), and then being administered with the chemotherapeutic agent (the mode and dosage were shown in Table 7); and the local administration group of the CDK inhibitor: the hair on the abdomen of mice was shaved (about 2 cm*2 cm), being applied with the CDK inhibitor (the time was shown in Table 7), and then being administered with the chemotherapeutic agent (the mode and dosage were shown in Table 7).
The diarrhea grading of mice was observed and recorded every day.

CN(C)C(=O)c1cc2cnc(Nc3ccc(N4CCNCC4)cn3)nc2n1C1CCCC1 [Ribociclib]
50%: Relative remission rate of oral administration ([1]; Example 426, Carboplatin intraperitoneal injection 120 mg/kg single, CDK inhibitor oral 200 mg/kg single, 8 h before, cycle 10 days) | Relative remission rate of oral administration ([1]; Example 427, Carboplatin intraperitoneal injection 120 mg/kg single, CDK inhibitor oral 200 mg/kg single, 12 h before, cycle 10 days) | Relative remission rate of oral administration ([1]; Example 435, Gemcitabine oral administration 300 mg/kg single, CDK inhibitor oral 100 mg/kg single, 24 h before, cycle 8 days) | Relative remission rate of oral administration ([2]; Example 390, Carboplatin (CBP) intraperitoneal injection 120 mg/kg single, CDK inhibitor oral 200 mg/kg single, 4 h before, cycle 10 days) | Relative remission rate of oral administration ([2]; Example 391, Carboplatin (CBP) intraperitoneal injection 120 mg/kg single, CDK inhibitor oral 200 mg/kg single, 8 h before, cycle 10 days) | Relative remission rate of oral administration ([2]; Example 401, Gemcitabine (GEM) oral administration 300 mg/kg single, CDK inhibitor oral 100 mg/kg single, 24 h before, cycle 8 days)
can significantly improve constipation: improvement of constipation by oral administration, intraperitoneal injection, intramuscular injection, local administration [1]
30%: Relative remission rate of oral administration ([1]; Example 425, Carboplatin intraperitoneal injection 120 mg/kg single, CDK inhibitor oral 200 mg/kg single, 4 h before, cycle 10 days) | Relative remission rate of oral administration ([2]; Example 389, Carboplatin (CBP) intraperitoneal injection 120 mg/kg single, CDK inhibitor oral 200 mg/kg single, 0.5 h before, cycle 10 days)
10%: Relative remission rate of other administration mode ([1]; Example 424, Carboplatin intraperitoneal injection 120 mg/kg single, CDK inhibitor intraperitoneal injection 200 mg/kg single, 0.5 h before, cycle 10 days) | Relative remission rate of other administration mode ([1]; Example 425, Carboplatin intraperitoneal injection 120 mg/kg single, CDK inhibitor intraperitoneal injection 200 mg/kg single, 4 h before, cycle 10 days) | Relative remission rate of other administration mode ([1]; Example 428, Carboplatin intraperitoneal injection 120 mg/kg single, CDK inhibitor intraperitoneal injection 200 mg/kg single, 24 h before, cycle 10 days) | Relative remission rate of other administration mode ([2]; Example 389, Carboplatin (CBP) intraperitoneal injection 120 mg/kg single, CDK inhibitor intraperitoneal injection 200 mg/kg single, 0.5 h before, cycle 10 days) | Relative remission rate of other administration mode ([2]; Example 390, Carboplatin (CBP) intraperitoneal injection 120 mg/kg single, CDK inhibitor intraperitoneal injection 200 mg/kg single, 4 h before, cycle 10 days) | Relative remission rate of other administration mode ([2]; Example 391, Carboplatin (CBP) intraperitoneal injection 120 mg/kg single, CDK inhibitor intraperitoneal injection 200 mg/kg single, 8 h before, cycle 10 days) | Relative remission rate of other administration mode ([2]; Example 393, Carboplatin (CBP) intraperitoneal injection 120 mg/kg single, CDK inhibitor intraperitoneal injection 200 mg/kg single, 24 h before, cycle 10 days)
40%: Relative remission rate of oral administration ([1]; Example 428, Carboplatin intraperitoneal injection 120 mg/kg single, CDK inhibitor oral 200 mg/kg single, 24 h before, cycle 10 days) | Relative remission rate of oral administration ([2]; Example 392, Carboplatin (CBP) intraperitoneal injection 120 mg/kg single, CDK inhibitor oral 200 mg/kg single, 12 h before, cycle 10 days) | Relative remission rate of oral administration ([2]; Example 393, Carboplatin (CBP) intraperitoneal injection 120 mg/kg single, CDK inhibitor oral 200 mg/kg single, 24 h before, cycle 10 days)
can relieve diarrhea: relief of diarrhea by oral, injection and local administration [2]
20%: Relative remission rate of oral administration ([1]; Example 424, Carboplatin intraperitoneal injection 120 mg/kg single, CDK inhibitor oral 200 mg/kg single, 0.5 h before, cycle 10 days) | Relative remission rate of other administration mode ([1]; Example 426, Carboplatin intraperitoneal injection 120 mg/kg single, CDK inhibitor intraperitoneal injection 200 mg/kg single, 8 h before, cycle 10 days) | Relative remission rate of other administration mode ([1]; Example 427, Carboplatin intraperitoneal injection 120 mg/kg single, CDK inhibitor intraperitoneal injection 200 mg/kg single, 12 h before, cycle 10 days) | Relative remission rate of other administration mode ([1]; Example 435, Gemcitabine oral administration 300 mg/kg single, CDK inhibitor local administration 100 mg/kg single, 24 h before, cycle 8 days) | Relative remission rate of other administration mode ([2]; Example 392, Carboplatin (CBP) intraperitoneal injection 120 mg/kg single, CDK inhibitor intraperitoneal injection 200 mg/kg single, 12 h before, cycle 10 days) | Relative remission rate of other administration mode ([2]; Example 401, Gemcitabine (GEM) oral administration 300 mg/kg single, CDK inhibitor local administration 100 mg/kg single, 24 h before, cycle 8 days)

CN1CCN(c2ccc(Nc3ncc4cc5n(c4n3)C3(CCCCC3)CNC5=O)nc2)CC1 [Trilaciclib (G1T28), Trilaciclib]
can significantly improve constipation: improvement of constipation by oral administration, intraperitoneal injection, intramuscular injection, local administration [1]
10%: Relative remission rate of other administration mode ([1]; Example 411, Doxorubicin (Dox) intravenous injection 12 mg/kg single, CDK inhibitor intraperitoneal injection 100 mg/kg single, 24 h before, cycle 8 days) | Relative remission rate of other administration mode ([1]; Example 421, Etoposide and cisplatin intraperitoneal injection 50€ 5 mg/kg single, CDK inhibitor intravenous injection 100 mg/kg single, 24 h before, cycle 7 days) | Relative remission rate of other administration mode ([1]; Example 436, Gemcitabine intramuscular injection 120 mg/kg single, CDK inhibitor intramuscular injection 100 mg/kg single, 24 h before, cycle 8 days) | Relative remission rate of other administration mode ([2]; Example 402, Gemcitabine (GEM) intramuscular injection 120 mg/kg single, CDK inhibitor intramuscular injection 50 mg/kg single, 24 h before, cycle 8 days) | Relative remission rate of other administration mode ([2]; Example 405, Gemcitabine and carboplatin intraperitoneal injection 120 (G) 100 (C) mg/kg single, CDK inhibitor intramuscular injection 100 mg/kg single, 24 h before, cycle 8 days)
20%: Relative remission rate of oral administration ([1]; Example 421, Etoposide and cisplatin intraperitoneal injection 50€ 5 mg/kg single, CDK inhibitor oral 150 mg/kg single, 24 h before, cycle 7 days) | Relative remission rate of other administration mode ([1]; Example 438, Gemcitabine and Carboplatin intravenous injection 120 (G) 100 (C) mg/kg single, CDK inhibitor intraperitoneal injection 100 mg/kg single, 12 h before, cycle 8 days) | Relative remission rate of other administration mode ([1]; Example 439, Gemcitabine and Carboplatin intravenous injection 120 (G) 100 (C) mg/kg single, CDK inhibitor intraperitoneal injection 100 mg/kg single, 24 h before, cycle 8 days) | Relative remission rate of other administration mode ([2]; Example 395, Carboplatin (CBP) oral administration 200 mg/kg single, CDK inhibitor local administration 100 mg/kg single, 24 h before, cycle 10 days) | Relative remission rate of other administration mode ([2]; Example 404, Gemcitabine and carboplatin intraperitoneal injection 120 (G) 100 (C) mg/kg single, CDK inhibitor intramuscular injection 100 mg/kg single, 12 h before, cycle 8 days)
60%: Relative remission rate of oral administration ([2]; Example 395, Carboplatin (CBP) oral administration 200 mg/kg single, CDK inhibitor oral 100 mg/kg single, 24 h before, cycle 10 days) | Relative remission rate of oral administration ([2]; Example 404, Gemcitabine and carboplatin intraperitoneal injection 120 (G) 100 (C) mg/kg single, CDK inhibitor oral 150 mg/kg single, 12 h before, cycle 8 days)
can relieve diarrhea: relief of diarrhea by oral, injection and local administration [2]
50%: Relative remission rate of oral administration ([1]; Example 438, Gemcitabine and Carboplatin intravenous injection 120 (G) 100 (C) mg/kg single, CDK inhibitor oral 100 mg/kg single, 12 h before, cycle 8 days) | Relative remission rate of oral administration ([1]; Example 439, Gemcitabine and Carboplatin intravenous injection 120 (G) 100 (C) mg/kg single, CDK inhibitor oral 100 mg/kg single, 24 h before, cycle 8 days) | Relative remission rate of oral administration ([2]; Example 405, Gemcitabine and carboplatin intraperitoneal injection 120 (G) 100 (C) mg/kg single, CDK inhibitor oral 150 mg/kg single, 24 h before, cycle 8 days)
40%: Relative remission rate of oral administration ([1]; Example 436, Gemcitabine intramuscular injection 120 mg/kg single, CDK inhibitor oral 100 mg/kg single, 24 h before, cycle 8 days) | Relative remission rate of oral administration ([2]; Example 402, Gemcitabine (GEM) intramuscular injection 120 mg/kg single, CDK inhibitor oral 50 mg/kg single, 24 h before, cycle 8 days)
30%: Relative remission rate of oral administration ([1]; Example 411, Doxorubicin (Dox) intravenous injection 12 mg/kg single, CDK inhibitor oral 100 mg/kg single, 24 h before, cycle 8 days)

Source: patent publication US20240293413A1, “COMPOUND AND METHOD FOR TREATING CHEMOTHERAPY-RELATED GASTROINTESTINAL SIDE EFFECTS” (ONQUALITY PHARMACEUTICALS CHINA LTD., priority 2021, published 2024)
